# Results taken from US11873298B2, “Compounds and uses thereof” (JANSSEN PHARMACEUTICA NV, priority 2017, dated 2024).
# Assays:
# [1] = system: U2OS cells transiently overexpressing alpha-synuclein; test: U2OS transient overexpression induced cytotoxicity assay (ATP content, CellTiter-Glow); format: cell-based, human; conditions: 72 hours post transfection
# Protocol: U2OS (Sigma-Aldrich), a human bone osteosarcoma epithelial cell line, is regularly maintained in McCoy's 5A medium (ATCC) supplemented with 10% FBS (ThermoFisher) between passage 11-21 and sub -cultured twice a week for the assay.
# On the day of experiment, cells are about 80% confluence and trypsinized using 0.25% trypsin-EDTA (ThermoFisher Inc.) for 5 minutes at 37 c. Based on a ratio of 2 ug DNA/2e5 cells, required cells are spun down at 800 rpm for 5 minutes at room temperature. Cells are then re-suspended in SE solution (Lonza Inc.) at a density of 2e4 cells/μl. Nucleofection is performed using 4D-Nucleofector™ System (Lonza Inc.) under program code CM130. Cells are allowed to recover in the cuvette at room temperature for 10-15 minutes before further handling. Pre-warmed medium is added and cells suspension is thoroughly but gently mixed before plating. Cells are seeded at 2e4 cells/100 µl/well into 96 well PLD-coated white plate (Corning) using customized Viaflow program (Integra Biosciences). Serial dilution of drugs is carried out in DMSO. Drug solution is prepared at 6× fold, 20 ul of which is added to cells 4 hours after transfection. The final DMSO concentration is 0.3%. Microclimate lid (Labcyte) is strongly recommended to reduce evaporation and variation. Seventy-two hours post transfection, cells are lysed using CellTiter-Glow (Promega) and ATP content is determined using a luminescence plate reader (Perkin Elmer).
# % Maximum fold rescue at each concentration is calculated as follows: […]
# FK506 (tacrolimus), a macrolide calcineurin inhibitor, is used as reference compound in the assay.
# % Rescue (normalized by max fold rescue of FK506)=(% Fold^αSyn drug-100)*100/(% Max fold^αSyn FK506-100).
# Ole1 = biological target: T1, Ole1 (Saccharomyces cerevisiae, UniProt P21147); test: Growth inhibition of yeast strain expressing Ole1 as sole desaturase; format: cell-based; conditions: yeast strain expressing Ole1 as sole desaturase
# T1 construct: expressed in transfected cells; host or cells: S. cerevisiae ole1Δ strain (W303 pdr1Δ pdr3Δ background), plasmid pRS316 with TDH3 promoter and CYC1 terminator
# T1 sequence (P21147 1-510): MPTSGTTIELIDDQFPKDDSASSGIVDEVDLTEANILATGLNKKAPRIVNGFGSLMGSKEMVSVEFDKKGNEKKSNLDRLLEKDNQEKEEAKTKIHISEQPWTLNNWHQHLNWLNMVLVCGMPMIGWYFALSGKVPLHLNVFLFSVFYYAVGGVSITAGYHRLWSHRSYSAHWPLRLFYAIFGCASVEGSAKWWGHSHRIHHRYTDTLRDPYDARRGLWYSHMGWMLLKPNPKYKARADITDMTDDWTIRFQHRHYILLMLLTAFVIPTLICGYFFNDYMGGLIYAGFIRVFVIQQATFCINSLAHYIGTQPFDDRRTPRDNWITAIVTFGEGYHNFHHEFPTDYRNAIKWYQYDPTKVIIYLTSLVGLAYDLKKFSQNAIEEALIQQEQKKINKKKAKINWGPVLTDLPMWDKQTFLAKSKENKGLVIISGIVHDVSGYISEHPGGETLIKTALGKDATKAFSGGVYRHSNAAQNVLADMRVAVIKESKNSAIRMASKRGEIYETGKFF
# In short: (§1)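 OD600 growth read-out. ole1Δ yeast, pdr1Δ pdr3Δ, with Ole1/SCD1/SCD5 on a plasmid; SX-Ura media throughout; 2× cell density 0.02 in CSM-Galactose; DMSO compound dilutions; humidified 30° C.; Ole1 stopped at 24 h, SCD1/SCD5 at 40 h.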
# SCD1 = biological target: T2, SCD1 (Homo sapiens, UniProt O00767); test: Growth inhibition of humanized yeast strain expressing SCD1 as sole desaturase; format: cell-based; conditions: humanized yeast strain expressing SCD1
# T2 construct: host or cells: S. cerevisiae ole1Δ strain (W303 pdr1Δ pdr3Δ background), plasmid pRS316 with TDH3 promoter and CYC1 terminator
# T2 sequence (O00767 1-359): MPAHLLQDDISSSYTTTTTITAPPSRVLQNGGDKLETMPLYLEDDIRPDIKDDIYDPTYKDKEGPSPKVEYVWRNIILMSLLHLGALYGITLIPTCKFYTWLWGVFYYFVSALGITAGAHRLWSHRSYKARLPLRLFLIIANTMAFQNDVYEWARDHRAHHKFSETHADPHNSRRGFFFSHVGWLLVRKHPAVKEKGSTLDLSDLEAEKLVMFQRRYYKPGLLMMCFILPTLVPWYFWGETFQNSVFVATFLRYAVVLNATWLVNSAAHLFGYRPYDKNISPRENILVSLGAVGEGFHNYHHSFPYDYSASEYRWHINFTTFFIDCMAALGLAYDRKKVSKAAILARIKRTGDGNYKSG
# In short: as §1
# SCD5 = biological target: T3, SCD5 (Homo sapiens, UniProt Q86SK9); test: Growth inhibition of humanized yeast strain expressing SCD5 as sole desaturase; format: cell-based; conditions: humanized yeast strain expressing SCD5
# T3 construct: host or cells: S. cerevisiae ole1Δ strain (W303 pdr1Δ pdr3Δ background), plasmid pRS316 with TDH3 promoter and CYC1 terminator
# T3 sequence (Q86SK9 1-330): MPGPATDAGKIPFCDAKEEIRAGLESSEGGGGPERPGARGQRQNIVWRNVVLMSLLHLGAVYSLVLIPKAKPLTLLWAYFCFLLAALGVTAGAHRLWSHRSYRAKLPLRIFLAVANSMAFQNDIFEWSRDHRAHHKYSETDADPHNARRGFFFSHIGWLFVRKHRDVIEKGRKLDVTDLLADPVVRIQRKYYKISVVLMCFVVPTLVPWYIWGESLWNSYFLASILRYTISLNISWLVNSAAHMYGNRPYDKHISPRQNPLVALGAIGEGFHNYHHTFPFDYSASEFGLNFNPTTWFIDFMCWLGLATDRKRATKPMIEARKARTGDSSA
# In short: as §1
# [2] = system: yeast strains expressing the human ApoE4; test: Yeast ApoE4 toxicity rescue assay (OD600 growth); conditions: 24 h; for EC50: read-out: ApoE4 EC50; for Emax: read-out: ApoE4 Emax
# [3] = system: yeast strains expressing the human α-synuclein; test: Yeast α-synuclein toxicity rescue assay (OD600 growth); conditions: 40 h; for EC50: read-out: α-Syn EC50; for Emax: read-out: α-Syn Emax
SMILES,% Rescue (normalized by FK506 max rescue) ([1]; 0.01 μM),% Rescue (normalized by FK506 max rescue) ([1]; 0.1 μM),% Rescue (normalized by FK506 max rescue) ([1]; 0.3 μM),% Rescue (normalized by FK506 max rescue) ([1]; 1 μM),IC50 (Ole1),OLE1 % Max Inhibition (Ole1),IC50 (SCD1),SCD1 % Max Inhibition (SCD1),IC50 (SCD5),SCD5 % Max Inhibition (SCD5),EC50 [2],Emax [2],EC50 [3],Emax [3]
"CCOc1ccc(-c2noc(C3CCN(C(=O)CNC(=O)c4ccccc4)CC3)n2)cc1OC [Example 155, N-(2-(4-(3-(4-ethoxy-3-methoxyphenyl)-1,2,4-oxadiazol-5-yl)piperidin-1-yl)-2-oxoethyl)benzamide]",−23%,83%,44%,10%,–,–,–,–,–,–,–,–,–,–
COc1ccc(-c2noc(N3CCC(C(=O)NCCc4ccccc4)CC3)n2)cc1OC [Compound 49],–,–,–,–,> 45 µM,34.89%,> 45 µM,61.29%,> 45 µM,63.18%,4.34 µM,942%,1.47 µM,636%
COc1ccc(-c2noc(C3CCN(C(=O)CNC(=O)c4ccccc4)CC3)n2)cc1OC [Compound 7],–,–,–,–,> 45 µM,–,39.2 µM,–,> 45 µM,–,0.176 µM,782%,0.04 µM,594%
CCOc1ccc(-c2noc(C3CCN(C(=O)NC4CC4c4ccccc4)CC3)n2)cc1OC (stereo not shown) [compound 80],–,–,–,–,> 45 µM,–,> 45 µM,–,> 45 µM,–,6.01 µM,262%,3.32 µM,188%
COc1ccc(-c2noc(C3CCN(C(=O)N4CCCCC4)CC3)n2)cc1OC [Compound 54],–,–,–,–,> 45 µM,85.34%,> 45 µM,82.41%,> 45 µM,47.60%,17.3 µM,240%,9.1 µM,95%
O=C(NCC(=O)N1CCC(c2nc(-c3ccc(F)c(F)c3)no2)CC1)c1ccccc1 [compound 24],–,–,–,–,> 45 µM,–,> 45 µM,–,30 µM,–,13.3 µM,301%,5.13 µM,76%
"Cc1nn(C)c2cc(-c3noc(C4CCN(C(=O)CNC(=O)c5ccccc5)CC4)n3)ccc12 [Example 40, N-(2-(4-(3-(1,3-dimethyl-1H-indazol-6-yl)-1,2,4-oxadiazol-5-yl)piperidin-1-yl)-2-oxoethyl)benzamide]",107%,137%,105%,77%,–,–,–,–,–,–,–,–,–,–
COc1ccc(-c2noc(C3CCN(C(=O)COCc4ccccc4)CC3)n2)cc1OC [Compound 31],–,–,–,–,> 45 µM,79.60%,> 45 µM,81.19%,25.4 µM,24.26%,9.81 µM,721%,7.51 µM,438%
"COc1cccc(-c2noc(C3CCN(C(=O)[C@@H]4CC(=O)N(c5ccc(C)c(C)c5)C4)CC3)n2)c1 (single isomer, unassigned) [compound 69]",–,–,–,–,> 45 µM,–,> 45 µM,–,> 45 µM,–,–,387%,–,294%
CCN1C(=O)COc2ccc(-c3noc(C4CCN(C(=O)C5CC(=O)N(c6ccc(C)c(C)c6)C5)CC4)n3)cc21 (stereo not shown) [compound 4],–,–,–,–,> 45 µM,–,> 45 µM,–,> 45 µM,–,11.8 µM,76%,8.43 µM,59%
COc1ccc(-c2noc(C3CCN(C(=O)C4CC(=O)N(c5ccc(C)c(C)c5)C4)CC3)n2)cc1OC (stereo not shown) [compound 19],–,–,–,–,> 45 µM,–,> 45 µM,–,> 45 µM,–,5.63 µM,891%,2.43 µM,574%
O=C(NCC(=O)N1CCC(c2nc(-c3ccccc3F)no2)CC1)c1ccccc1 [Compound 43],–,–,–,–,> 45 µM,107.35%,> 45 µM,76.52%,> 45 µM,65.66%,17.7 µM,517%,14.6 µM,222%
"Cc1ccc(-c2nc(C3CCN(C(=O)[C@H]4CC(=O)N(c5ccc(C)c(C)c5)C4)CC3)no2)cc1 (single isomer, unassigned) [compound 71]",–,–,–,–,> 45 µM,–,> 45 µM,–,> 45 µM,–,8.97 µM,235%,8.09 µM,151%
CCOc1ccc(-c2noc(C3CCN(C(=O)CNC(=O)c4ccccc4)CC3)n2)cc1Br [compound 99],–,–,–,–,> 45 µM,–,> 45 µM,–,> 45 µM,–,2.75 µM,663%,1.03 µM,209%
O=C(NCC(=O)N1CCC(c2nc(-c3cccc(F)c3)no2)CC1)c1ccccc1 [Compound 42],–,–,–,–,> 45 µM,95.43%,> 45 µM,90.77%,> 45 µM,47.40%,–,399%,12.5 µM,255%
"Cc1cccc(-c2nc(C3CCN(C(=O)[C@H]4CC(=O)N(c5ccc(C)c(C)c5)C4)CC3)no2)c1 (single isomer, unassigned) [compound 73]",–,–,–,–,> 45 µM,–,33.7 µM,–,> 45 µM,–,–,303%,15.8 µM,151%
COc1ccc(-c2noc(N3CCC(C(=O)N4CCCCC4)CC3)n2)cc1OC [compound 6],–,–,–,–,39.1 µM,–,> 45 µM,–,41.1 µM,–,15.1 µM,815%,10.2 µM,460%
Cc1cccc(-c2nc(C3CCN(C(=O)C4CC(=O)N(c5ccc(C)c(C)c5)C4)CC3)no2)c1 (stereo not shown) [Compound 51],–,–,–,–,> 45 µM,102.56%,> 45 µM,76.83%,> 45 µM,6.59%,–,286%,10.9 µM,137%
